Experiments:
[1] = system: T-lymphoblastic leukemia cell line CEM; assay: Calcein AM cytotoxicity assay; format: cell-based, human; conditions: Homo sapiens, 72 hours
AHK3 = molecular target: T1, AHK3 (Arabidopsis thaliana, UniProt Q9C5U1); assay: Activation of cytokinin receptors (E. coli KMI001 beta-galactosidase reporter); format: cell-based; conditions: 28 h incubation; n.a. means no activation
T1 sequence (Q9C5U1 1-1036): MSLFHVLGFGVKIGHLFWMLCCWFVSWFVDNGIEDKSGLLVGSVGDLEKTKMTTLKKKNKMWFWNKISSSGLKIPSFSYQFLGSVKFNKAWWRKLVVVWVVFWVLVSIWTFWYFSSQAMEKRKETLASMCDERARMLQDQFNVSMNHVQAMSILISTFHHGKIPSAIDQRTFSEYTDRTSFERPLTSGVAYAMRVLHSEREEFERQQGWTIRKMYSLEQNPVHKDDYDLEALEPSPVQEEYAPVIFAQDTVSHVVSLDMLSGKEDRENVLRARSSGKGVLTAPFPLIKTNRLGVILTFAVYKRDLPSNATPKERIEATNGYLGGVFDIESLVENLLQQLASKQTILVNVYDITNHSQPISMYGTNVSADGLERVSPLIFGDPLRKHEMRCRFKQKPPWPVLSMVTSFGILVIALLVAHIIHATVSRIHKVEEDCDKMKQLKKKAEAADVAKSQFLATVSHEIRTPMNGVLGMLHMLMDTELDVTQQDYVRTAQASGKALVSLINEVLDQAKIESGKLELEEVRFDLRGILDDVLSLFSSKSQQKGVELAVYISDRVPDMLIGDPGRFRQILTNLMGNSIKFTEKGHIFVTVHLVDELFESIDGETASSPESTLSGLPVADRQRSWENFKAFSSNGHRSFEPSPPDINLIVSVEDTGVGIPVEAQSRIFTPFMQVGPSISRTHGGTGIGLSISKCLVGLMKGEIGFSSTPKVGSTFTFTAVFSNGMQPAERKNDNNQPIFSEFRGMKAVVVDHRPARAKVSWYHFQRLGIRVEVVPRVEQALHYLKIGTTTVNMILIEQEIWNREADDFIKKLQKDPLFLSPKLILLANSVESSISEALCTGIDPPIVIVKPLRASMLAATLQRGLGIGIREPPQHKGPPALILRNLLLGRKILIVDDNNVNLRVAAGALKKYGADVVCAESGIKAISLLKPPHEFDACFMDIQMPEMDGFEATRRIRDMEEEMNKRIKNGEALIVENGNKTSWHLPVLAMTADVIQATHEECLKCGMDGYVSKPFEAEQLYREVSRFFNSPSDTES
How it was run: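 E. coli KMI001 carrying the receptor plasmid was grown in M9 + 0.1% casamino acids at 25 °C, diluted 1:600 and treated with compound (stock solutions 10^-7–5×10^-5 M). Supernatant β-galactosidase was read by 4-methylumbelliferyl galactoside hydrolysis (1 h, 37 °C, Na2CO3 stop). EC50 came from dose-response curves, triplicate means.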

[2] = system: erytroid leukemia cell line K-562; assay: Calcein AM cytotoxicity assay; format: cell-based, human; conditions: Homo sapiens, K562, 72 hours
How it was run: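 Cells seeded at 2.500-30.000 per well, pre-incubated 24 h, then exposed 72 h at 37 °C to six 3-fold dilutions (top 166.6 μM), in triplicate. Calcein AM added to 1 μg/ml for 1 h; fluorescence gives growth inhibition, GI50 taken from dose-response curves.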

EC50 (AHK3) [µM] | SMILES | GI50 [1] [µM] | GI50 [2] [µM]
19 | Fc1nc(Nc2ccccc2)c2nc[nH]c2n1 [Compound 40] | > 167 | 
31.6 | Fc1nc(Nc2cccc(Cl)c2)c2nc[nH]c2n1 [Compound 42] | > 167 | 
15 | Oc1cccc(Nc2nc(F)nc3[nH]cnc23)c1 [Compound 48] |  | > 167
22.7 | COc1cccc(Nc2nc(F)nc3nc[nH]c23)c1 [Compound 51, 2-Fluoro-6-(3-methoxyanilino)purine] |  | 
7.7 | Nc1nc(Nc2cccc(O)c2)c2nc[nH]c2n1 [Compound 72] |  | 
> 50 | Fc1cccc(Nc2nc(S)nc3[nH]cnc23)c1 [Compound 83] |  | 

Continued, compound first:

SMILES | EC50 (AHK3) [µM] | GI50 [1] [µM] | GI50 [2] [µM]
Clc1nc(Nc2ccccc2)c2[nH]cnc2n1 [Compound 1, 2-Chloro-6-anilinopurine] |  | > 167 | 
Clc1cccc(Nc2nc(Cl)nc3nc[nH]c23)c1 [Compound 3, 2-Chloro-6-(3-chloroanilino)purine] | 20 | > 167 | 
Clc1ccc(Nc2nc(Cl)nc3[nH]cnc23)cc1 [Compound 4] |  | > 167 | > 167
Fc1cccc(Nc2nc(Cl)nc3nc[nH]c23)c1 [Compound 6, 2-Chloro-6-(3-fluoroanilino)purine] |  |  | > 167
Oc1cccc(Nc2nc(Cl)nc3nc[nH]c23)c1 [Compound 9, 2-Chloro-6-(3-hydroxyanilino)purine] | 2.8 |  | 
COc1cccc(Nc2nc(Cl)nc3nc[nH]c23)c1 [Compound 12, 2-Chloro-6-(3-methoxyanilino)purine] | 9.5 |  | 
Nc1nc(Nc2cccc(Cl)c2)c2nc[nH]c2n1 [Compound 66] | 43 |  | 
c1coc(CNc2ncnc3nc[nH]c23)c1 [Kinetin, 6-furfurylaminopurine, reference compound] |  | 155 | 

— patent US8222260B2, “Substituted 6-anilinopurine derivatives as inhibitors of cytokinin oxidase/dehydrogenase and preparations containing these derivatives” (Univerzita Palackego V Olomouci, priority 2007, dated 2012)
